Test results from ChEMBL document CHEMBL4706623, “GPR52 Antagonist Reduces Huntingtin Levels and Ameliorates Huntington's Disease-Related Phenotypes” (J Med Chem, 2021).

Molecular target: G-protein coupled receptor 52 (Homo sapiens, UniProt Q9Y2T5)
Assay: Antagonist activity at GPR52 (unknown origin) expressed in HEK293 cells assessed as inhibition of WO459-induced cAMP accumulation preincubated for 15 mins followed by WO459 addition and measured after 30 mins by LANCE Ultra cAMP kit based microplate reader analysis
Format: functional, cell-based
Conditions: hek293; call rule not given here

Sequence of G-protein coupled receptor 52 (Q9Y2T5 whole entry): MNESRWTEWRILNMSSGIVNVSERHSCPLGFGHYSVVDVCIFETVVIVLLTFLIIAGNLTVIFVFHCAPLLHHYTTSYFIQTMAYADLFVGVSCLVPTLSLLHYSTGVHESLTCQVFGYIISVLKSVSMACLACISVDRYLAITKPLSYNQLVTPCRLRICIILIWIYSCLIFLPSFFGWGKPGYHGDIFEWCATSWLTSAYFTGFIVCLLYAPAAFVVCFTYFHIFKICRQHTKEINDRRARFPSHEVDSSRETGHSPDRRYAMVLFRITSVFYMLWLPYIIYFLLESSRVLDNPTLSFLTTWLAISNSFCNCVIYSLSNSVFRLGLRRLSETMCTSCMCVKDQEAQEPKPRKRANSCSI

## O=C(/C=C/CCc1ccccc1)N1CCCCC1
  IC50: Not Active
